Values of other authors as cited in patent US20020015956A1, “Compositions and methods for the identification, assessment, prevention, and therapy of human cancers” (priority 2000, published 2002).

System: tumor
Conditions: animal models

For `CC(=O)O[C@@]12CO[C@@H]1C[C@H](O)[C@@]1(C)C(=O)[C@H](O)C3=C(C)[C@@H](OC(=O)[C@H](O)[C@@H](NC(=O)OC(C)(C)C)c4ccccc4)C[C@@](O)([C@@H](OC(=O)c4ccccc4)[C@H]21)C3(C)C` [Taxotere, docetaxel], which anti-tumor activity is on record?
Its anti-tumor activity is “good anti-tumor activity”.
